According to patent publication US20240279174A1, “ANTIBIOTICS COMPRISING LPXH-TARGETING COMPOUNDS AND METHODS OF MAKING AND USING THE SAME” (Duke University, priority 2019, published 2024):
Values after ≈ are worked out from the molar mass of the structure shown. Read-outs that look alike come from different tables or passages of the source.

Assays:
[1] = target: T1, K. pneumoniae LpxH (KpLpxH) (Klebsiella pneumoniae subsp. pneumoniae (strain ATCC 700721 / MGH 78578), UniProt A6T5R0); assay: LpxE-coupled malachite green LpxH activity assay (KpLpxH inhibition); type: biochemical; conditions: for remaining activity at 0.1 µM / inhibition at 0.1 µM: 0.1 μM inhibitor; for remaining activity at 0.1 µM: normalized against KpLpxH activity in 10% DMSO, read-out: Percentage Activity of KpLpxH (vi/v0); for inhibition at 0.1 µM: read-out: Percentage Inhibition of KpLpxH; for IC50: Table 5, read-out: IC50: Average
Protocol: Evaluation of LpxH inhibition by analogs: After completing the synthesis of sulfonyl piperazine compounds with various forms of linkers, the KpLpxH inhibition was biochemically characterized by these analogs at 0.1 μM using the nonradioactive, colorimetric malachite green assay that we had previously reported. […] Such an enhanced potency requires the presence of the hydroxamate group, as its substitution with a carboxylate group in compound 7 reduced the compound activity (vi/v0=30±6%).
The LpxE-coupled LpxH activity assay was conducted as described previously using the GB1-K. pneumoniae LpxH-His10 fusion protein. Briefly, two reaction mixtures were prepared. Mixture 1 contains 20 mM Tris-HCl (pH 8.0), 0.5 mg/mL BSA, 0.02% Triton X-100, 1 mM MnCl2, 1 mM DTT, 10% DMSO, and 200 µM substrate (UDP-DAGn), and mixture 2 is comprised of the same buffer, but instead of substrate, contains both LpxH (20 ng/ml) and 2× inhibitor. These mixtures were then pre-incubated at 37° C. for 10 min. To initiate the reaction, an equal volume of the LpxH mixture (mixture 2) was added to the substrate mixture (mixture 1) at 37° C. The final reaction solution contains 100 μM substrate, 10 ng/ml enzyme, and 1× inhibitor. At the desired reaction time points, an aliquot of 20 μL reaction mixture was removed and added to a well in 96-well half-area plate containing 5 mM EDTA (final concentration) to quench the LpxH reaction. Purified Aquifex aeolicus LpxE was then added to a final concentration of 5 μg/mL. The plate was incubated at 37° C. for 30 min followed by addition of formic acid to a final concentration of 3.75 M to quench the LpxE reaction. The malachite green reagent (Sigma Aldrich, catalog MAK307) was diluted 5-fold into the solutions, and the plate was incubated for 30 min at room temperature before the absorbance at 620 nm was measured. All measurements were done in triplicates, and standard error (S.E.) was calculated.

WT K. pneumoniae = conditions: cited from earlier work
[2] = test system: K. pneumoniae (ATCC 10031); assay: MIC assay (broth microdilution), K. pneumoniae; type: cell-based; conditions: Klebsiella pneumoniae, ATCC10031
Protocol: (§1) The MIC assay protocol was adapted from the broth microdilution methods described by the National Committee for Clinical Laboratory Standards using 96-well plates as described previously. In brief, overnight bacterial cultures were diluted to an OD600 of 0.006 in cation-adjusted Mueller-Hinton medium containing 7% DMSO and incubated at 37° C. for 22 h in the presence of varying concentrations of inhibitors. Following overnight incubation, each well is treated with 10 μL of 3-(4,5-dimethylthiazol-2-yl)-2,5-diphenyltetrazolium bromide (MTT, 5 mg/mL) for 3 h. Finally, the culture is solubilized by addition of 2-propanol, and the results are read by taking the difference of the UV reading at both 570 and 690 nm. MIC values were reported as the lowest compound concentration that inhibited bacterial growth. The baseline for inhibited cell growth was determined to be <4× the average control reading due to the baseline optical density of the initial starting bacterial culture.

[3] = test system: E. coli strains with a compromised outer membrane (yhjD*ΔkdtA) or with an efflux pump deletion (ΔtolC); conditions: cited from earlier work
[4] = target: T1, K. pneumoniae LpxH (KpLpxH); conditions: previously reported value for 2; read-out: KI of KpLpxH inhibition (reported value); cited from earlier work
E. coli W3110 = assay: MIC assay (broth microdilution), E. coli; type: cell-based; conditions: Escherichia coli, Table 4
Protocol: as §1

[5] = K. pneumoniae (ATCC 10031), in vitro, read-out: MIC
[6] = Table 4, read-out: MIC - K. pneumoniae (ATCC 10031)

| Compound | MIC [2, 6] [µg/mL] | IC50 [1] [nM] | MIC (E. coli W3110) [µg/mL] | other results |
| --- | --- | --- | --- | --- |
| CC(=O)N1CCc2cc(S(=O)(=O)N3CCN(c4cccc(C(F)(F)F)c4)CC3)ccc21 [AZ1, reference compound] | > 64 | – | – | remaining activity at 0.1 µM [1]: 78%; inhibition at 0.1 µM [1]: 22%; antibiotic activity (WT K. pneumoniae): weak antibiotic activity; MIC [2, 5]: > 64 µg/mL; antibiotic activity [3]: weak antibiotic activity |
| O=C(CCCCCNC(=O)Nc1ccc(S(=O)(=O)N2CCN(c3cc(C(F)(F)F)cc(Cl)n3)CC2)cc1)NO [JH-LPH-104] | 1 (≈ 1.69 µM) | 0.23 | 16 (≈ 27 µM) | – |
| CN(c1ccccc1C(=O)Nc1ccc(S(=O)(=O)N2CCN(c3cc(Cl)cc(Cl)c3)CC2)cc1)S(C)(=O)=O [JH-LPH-105] | 0.3 (≈ 0.502 µM) | – | 2 (≈ 3.35 µM) | – |
| CN(c1ccccc1C(=O)Nc1ccc(S(=O)(=O)N2CCN(c3cc(C(F)(F)F)cc(Cl)n3)CC2)cc1)S(C)(=O)=O [JH-LPH-107] | 0.04 (≈ 0.0633 µM) | – | 1 (≈ 1.58 µM) | – |

Now from value to molecule, other results behind:

| MIC [2, 6] [µg/mL] | IC50 [1] [nM] | MIC (E. coli W3110) [µg/mL] | Compound | other results |
| --- | --- | --- | --- | --- |
| 0.83 (≈ 1.7 µM) | 104 | – | CC(=O)N1CCc2cc(S(=O)(=O)N3CCN(c4cc(Cl)cc(C(F)(F)F)c4)CC3)ccc21 [JH-LPH-33] | remaining activity at 0.1 µM [1]: 21%; inhibition at 0.1 µM [1]: 79%; MIC [2, 5]: 0.83 µg/mL (≈ 1.7 µM); Ki [4]: 10 nM |
| 1.33 (≈ 2.92 µM) | 32 | – | CC(=O)N1CCc2cc(S(=O)(=O)N3CCN(c4nccc(C(F)(F)F)n4)CC3)ccc21 [JH-LPH-93] | – |
| 0.83 (≈ 1.37 µM) | 2 | – | O=C(CCCCNC(=O)N1CCc2cc(S(=O)(=O)N3CCN(c4cc(C(F)(F)F)cc(Cl)n4)CC3)ccc21)NO [JH-LPH-96] | – |
| – | – | 1.7 (≈ 2.58 µM) | CN(c1ccccc1C(=O)N1CCc2cc(S(=O)(=O)N3CCN(c4cc(C(F)(F)F)cc(Cl)n4)CC3)ccc21)S(C)(=O)=O [JH-LPH-106] | – |
